The text below walks through data of US10093671B2, “2-oxo-6,7-dihydrobenzo[a]quinolizine-3-carboxylic acid derivatives for the treatment and prophylaxis of hepatitis B virus infection” (Hoffmann-La Roche Inc., priority 2015, dated 2018).

The structures appear in SMILES notation. pIC50: −log10 of the molar value.

As usually defined, the pIC50 is the negative decadic logarithm of the IC50, by convention in mol/L.

In one experiment the test system is HBsAg. Kind of experiment: microbe, parasite or virus in culture. The settings on record: Hepatitis B virus, HepG2.2.15, read-out: IC50 (HBsAg secretion reduced by 50% compared to the no drug control).
Another experiment deals with HBV DNA. Kind of experiment: HBV DNA assay (real-time qPCR of extracellular HBV DNA copy number, HepG2.2.15 cells). The format is cell-based. The settings on record: Hepatitis B virus, 144 h, six days, extracellular HBV DNA by qPCR, read-out: IC50 (Anti HBV DNA production activity). Here is the method: The assay employs real-time qPCR (TaqMan) to directly measure extracellular HBV DNA copy number. HepG2.2.15 cells were plated in 96-well microtiter plates. Only the interior wells were utilized to reduce “edge effects” observed during cell culture, the exterior wells were filled with complete medium to help minimize sample evaporation. On the following day, the HepG2.2.15 cells were washed and the medium was replaced with complete medium containing various concentrations of a test compound in triplicate. 3TC was used as the positive control, while media alone was added to cells as a negative control (virus control, VC). Three days later, the culture medium was replaced with fresh medium containing the appropriately diluted drug. Six days following the initial administration of the test compound, the cell culture supernatant was collected, treated with pronase and then used in a real-time qPCR/TaqMan assay to determine HBV DNA copy numbers. Antiviral activity was calculated from the reduction in HBV DNA levels (IC50).

Protocol for HBsAg: HepG2.2.15 cells (Acs et al. Proc Natl Acad Sci USA, 84, (1987), 4641-4), a constitutively HBV-expressing cell line were cultured in DMEM+Glutamax-I medium (Invitrogen, Carlsbad, Calif., USA), supplemented with 10% fetal bovine serum (Invitrogen) and G418 (Invitrogen) at a final concentration of 200 mg/L and maintained in 5% CO2 at 37° C.
HepG2.2.15 cells were seeded in duplicate into white, 96-well plates at 1.5×10^4 cells/well. The cells were treated with a three-fold serial dilution series of the compounds in DMSO. The final DMSO concentration in all wells was 1% and DMSO was used as no drug control.
The HBsAg chemiluminescence immunoassay (CLIA) kit (Autobio Diagnostics Co., Zhengzhou, China, Catalog number: CL0310-2) was used to measure the levels of secreted HBV antigens semi-quantitatively. For the detection 50 μL/well culture supernatant was used and HBsAg was quantified using HBsAg chemiluminescence immunoassay (CLIA) kit (Autobio Diagnostics Co., Zhengzhou, China, Catalog number: CL0310-2), 50 μL of the supernatant was transferred to the CLIA assay plate and 50 μL of enzyme conjugate reagent was added into each well. The plates were sealed and gently agitated for 1 hour at room temperature. The supernatant-enzyme-mixture was discarded and wells were washed 6 times with 300 μL of PBS. The residual liquid was removed by plating the CLIA plate right side down on absorbent tissue paper. 25 μL of substrates A and B were added to each well. Luminance was measured using a luminometer (Mithras LB 940 Multimode Microplate Reader) after 10 minutes incubation. Dose-response curves were generated and the IC50 value was extrapolated by using the E-WorkBook Suite (ID Business Solutions Ltd., Guildford, UK). The IC50 was defined as the compound concentration (or conditioned media log dilution) at which HBsAg secretion was reduced by 50% compared to the no drug control.

Regarding `COc1cc2c(cc1OCC1CC1)CC(c1cccs1)n1cc(C(=O)O)c(=O)cc1-2` (centres unmarked) [Example 15, 9-(cyclopropylmethoxy)-10-methoxy-2-oxo-6-(2-thienyl)-6,7-dihydrobenzo[a]quinolizine-3-carboxylic Acid], the pIC50 with HBsAg was 8.70; in the experiment with HBV DNA, greater than 7.49. Take `COCCCOc1cc2c(cc1OC)-c1cc(=O)c(C(=O)O)cn1C(c1cc(C)cs1)C2` (centres unmarked) [Example 7, 10-methoxy-9-(3-methoxypropoxy)-6-(4-methyl-2-thienyl)-2-oxo-6,7-dihydrobenzo[a]quinolizine-3-carboxylic Acid]: the pIC50 is 8.05 with HBsAg and greater than 7.49 with HBV DNA.

For the compound `COc1cc2c(cc1OCC(C)(C)CO)CC(c1cccs1)n1cc(C(=O)O)c(=O)cc1-2` (centres unmarked) [Example 26, 9-(3-hydroxy-2,2-dimethyl-propoxy)-10-methoxy-2-oxo-6-(2-thienyl)-6,7-dihydrobenzo[a]quinolizine-3-carboxylic Acid], the pIC50 in the experiment with HBsAg was 8.40.

Take `COc1ccc2c(c1C)CC(c1cccs1)n1cc(C(=O)O)c(=O)cc1-2` (centres unmarked) [Example 11, 9-methoxy-8-methyl-2-oxo-6-(2-thienyl)-6,7-dihydrobenzo[a]quinolizine-3-carboxylic Acid]: the pIC50 in the experiment with HBsAg is 6.77.

For `COc1cc2c(cc1OCCCCCCNC(C)=O)CC(c1cccs1)n1cc(C(=O)O)c(=O)cc1-2` (centres unmarked) [Example 23, 9-(6-acetamidohexoxy)-10-methoxy-2-oxo-6-(2-thienyl)-6,7-dihydrobenzo[a]quinolizine-3-carboxylic Acid], the pIC50 in the experiment on HBsAg was 7.74. Same read-out and setting: for `COc1cc2c(cc1N1CCCC1)CC(c1cccs1)n1cc(C(=O)O)c(=O)cc1-2` (centres unmarked) [Example 36, 10-methoxy-2-oxo-9-pyrrolidin-1-yl-6-(2-thienyl)-6,7-dihydrobenzo[a]quinolizine-3-carboxylic Acid] the value was 8.52; for `COCCCOc1cc2c(cc1OC)-c1cc(=O)c(C(=O)O)cn1C(c1ccccc1C)C2` (centres unmarked) [Example 10, 10-methoxy-9-(3-methoxypropoxy)-6-(o-tolyl)-2-oxo-6,7-dihydrobenzo[a]quinolizine-3-carboxylic Acid], 8.00; for `COc1cc2c(cc1OCCN1CCCC1=O)CC(c1cccs1)n1cc(C(=O)O)c(=O)cc1-2` (centres unmarked) [Example 20, 10-methoxy-2-oxo-9-[2-(2-oxopyrrolidin-1-yl)ethoxy]-6-(2-thienyl)-6,7-dihydrobenzo[a]quinolizine-3-carboxylic Acid], 7.43.

As to `COc1cc2c(cc1C)CC(c1cccs1)n1cc(C(=O)O)c(=O)cc1-2` (centres unmarked) [Example 33, 10-methoxy-9-methyl-2-oxo-6-(2-thienyl)-6,7-dihydrobenzo[a]quinolizine-3-carboxylic Acid], the pIC50 in the experiment with HBsAg was 7.46.
